The text below walks through data of PubChem BioAssay AID1918940 (Molecular Pharmacology Branch, DTP, NCI, 2023).

The test system of the assay is NCI-H211 complex spheroid viability. Nature of the assay: Anticancer human tumor NCI-H211 cell line growth inhibition [LSD1].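 For all read-outs here: luminescent viability read after seven days of drug exposure.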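 For viability, T/C: 100% = DMSO vehicle control viability.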 The following applies: for viability, T/C: stronger effect = lower value. In a few lines: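 Complex spheroids of tumor cells with HUVEC and human MSCs, exposed to iadademstat combined with other agents. Each agent tested in half-log steps from near clinical Cmax (else 10 microM top), DMSO ≤0.25%.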

[1] abbreviates: curve of first compound, second compound 0.1 µM.
Where [2] appears, read: curve of first compound, second compound 0.316 µM.
The mark [3] stands for this setting: curve of first compound, second compound 1 µM.
Where [4] appears, read: curve of first compound, second compound 3.16 µM.
Where [5] appears, read: curve of first compound, second compound 10 µM.
[6] abbreviates: second compound 0.1 µM, first compound 0.0316 µM.
Setting [7] is: second compound 0.1 µM, first compound 0.1 µM.
[8] abbreviates: second compound 0.1 µM, first compound 0.316 µM.
[9] abbreviates: second compound 0.1 µM, first compound 1 µM.
[10] abbreviates: second compound 0.316 µM, first compound 0.0316 µM.
Where [11] appears, read: second compound 0.316 µM, first compound 0.1 µM.
The mark [12] stands for this setting: second compound 0.316 µM, first compound 0.316 µM.
[13] abbreviates: second compound 0.316 µM, first compound 1 µM.
[14] abbreviates: second compound 1 µM, first compound 0.0316 µM.
Where [15] appears, read: second compound 1 µM, first compound 0.1 µM.
Where [16] appears, read: second compound 1 µM, first compound 0.316 µM.
[17] abbreviates: second compound 1 µM, first compound 1 µM.
Setting [18] is: second compound 3.16 µM, first compound 0.0316 µM.
The mark [19] stands for this setting: second compound 3.16 µM, first compound 0.1 µM.
Where [20] appears, read: second compound 3.16 µM, first compound 0.316 µM.
Setting [21] is: second compound 3.16 µM, first compound 1 µM.
Setting [22] is: second compound 10 µM, first compound 0.0316 µM.
Setting [23] is: second compound 10 µM, first compound 0.1 µM.
Setting [24] is: second compound 10 µM, first compound 0.316 µM.
The mark [25] stands for this setting: second compound 10 µM, first compound 1 µM.

Values joined by “and” are separate entries in the source; they are usually repeats but may differ in a detail not shown here. Identical values can stand only once.

As to `CC1(C)CCC(CN2CCN(c3ccc(C(=O)NS(=O)(=O)c4ccc(NCC5CCOCC5)c([N+](=O)[O-])c4)c(Oc4cnc5[nH]ccc5c4)c3)CC2)=C(c2ccc(Cl)cc2)C1` + NC1CC1c1ccc(-c2cccc(O)c2)cc1, the IC50 by setting is: under setting [1], < 31.6 nM; under setting [2], < 31.6 nM; under setting [3], < 31.6 nM; under setting [4], < 31.6 nM; under setting [5], < 31.6 nM. Further, the viability, T/C is 43.8% under setting [6]; 38.7% under setting [7]; 35% under setting [8]; 53.4% under setting [9]; 100% (second compound 0.1 µM, first compound 3.16 µM); 52.7% (second compound 0.1 µM, first compound 10 µM). Also, the viability, T/C runs as follows: under setting [10], 36.8%; under setting [11], 37.9%; under setting [12], 37.2%; under setting [13], 53.2%; (second compound 0.316 µM, first compound 3.16 µM) 100%; (second compound 0.316 µM, first compound 10 µM) 65.1%. In addition, the viability, T/C under setting [14] was 27.5%; the viability, T/C under setting [15] was 47.8%; the viability, T/C under setting [16] is 26.1%; the viability, T/C under setting [17] is 44.5%; the viability, T/C (second compound 1 µM, first compound 3.16 µM) is 90.8%; the viability, T/C (second compound 1 µM, first compound 10 µM) was 55%. For the same compound, the viability, T/C under setting [18] is 32.1%; the viability, T/C under setting [19] was 28.1%; the viability, T/C under setting [20] was 29.8%; the viability, T/C under setting [21] is 30.8%; the viability, T/C (second compound 3.16 µM, first compound 3.16 µM) is 58.9%; the viability, T/C (second compound 3.16 µM, first compound 10 µM) is 46.2%. The viability, T/C is, setting by setting: under setting [22], 32.7%; under setting [23], 26.2%; under setting [24], 21.2%; under setting [25], 28.2%; (second compound 10 µM, first compound 3.16 µM) 30.5%; (second compound 10 µM, first compound 10 µM) 21%.
`CC(C)c1c(-c2ccccc2)nc2c(C#N)c[nH]n2c1=O`: the viability, T/C by setting is: (compound 0.0316 µM) 104% and 81.5%; (compound 0.1 µM) 127% and 88%; (compound 0.316 µM) 103% and 68.7%; (compound 1 µM) 114% and 68.7%; (compound 3.16 µM) 98.9% and 67%; (compound 10 µM) 97.3% and 75.2%. For the same compound, for the setting “curve of compound”, the IC50 is > 10000 nM.
In the case of `Nc1ccccc1NC(=O)c1ccc(CNC(=O)OCc2cccnc2)cc1`, the viability, T/C was 106% and 110% (compound 0.00949 µM); 51.8% and 28.6% (compound 0.03 µM); 5.07% and 4.05% (compound 0.0949 µM); 1.34% and 3.99% (compound 0.3 µM); 0.93% and 2.1% (compound 0.949 µM); 0.2% and 0.22% (compound 3 µM). Moreover, for the setting “curve of compound”, the IC50 was 31.3 nM and 22.1 nM.
For `CC1COCCN1c1cc(-c2ccnn2C)c2ccnc(-c3ccn[nH]3)c2n1` (stereo unspecified) + NC1CC1c1ccc(-c2cccc(O)c2)cc1, the IC50 under setting [1] is 3.78 nM; the IC50 under setting [2] is 3.51 nM; the IC50 under setting [3] is < 3.16 nM; the IC50 under setting [4] was < 3.16 nM; the IC50 under setting [5] is < 3.16 nM. In addition, the viability, T/C by setting is: (second compound 0.1 µM, first compound 0.00316 µM) 56.3%; (second compound 0.1 µM, first compound 0.01 µM) 16.8%; under setting [6], 6.31%; under setting [7], 4.68%; under setting [8], 3.56%; under setting [9], 3.19%. The viability, T/C (second compound 0.316 µM, first compound 0.00316 µM) was 53.6%; the viability, T/C (second compound 0.316 µM, first compound 0.01 µM) is 14%; the viability, T/C under setting [10] is 6.09%; the viability, T/C under setting [11] was 4.56%; the viability, T/C under setting [12] was 4.43%; the viability, T/C under setting [13] was 4.27%. The viability, T/C is 47.7% (second compound 1 µM, first compound 0.00316 µM); 16.8% (second compound 1 µM, first compound 0.01 µM); 6.6% under setting [14]; 4.61% under setting [15]; 7.13% under setting [16]; 4.1% under setting [17]. The viability, T/C reads like this: (second compound 3.16 µM, first compound 0.00316 µM) 43.6%; (second compound 3.16 µM, first compound 0.01 µM) 14.1%; under setting [18], 6.53%; under setting [19], 4.92%; under setting [20], 4.52%; under setting [21], 4.59%. The viability, T/C (second compound 10 µM, first compound 0.00316 µM) was 34.5%; the viability, T/C (second compound 10 µM, first compound 0.01 µM) was 14.5%; the viability, T/C under setting [22] is 7.33%; the viability, T/C under setting [23] is 4.8%; the viability, T/C under setting [24] was 4.76%; the viability, T/C under setting [25] is 6.03%.
For the compound `CCc1c2c(nc3ccc(O)cc13)-c1cc3c(c(=O)n1C2)COC(=O)[C@]3(O)CC` + NC1CCC(NC2CC2c2ccccc2)CC1, the IC50 runs as follows: under setting [1], < 0.949 nM; under setting [2], < 0.949 nM; under setting [3], < 0.949 nM; under setting [4], < 0.949 nM; under setting [5], < 0.949 nM. Also, the viability, T/C was 1.98% (second compound 0.1 µM, first compound 0.000949 µM); 3.23% (second compound 0.1 µM, first compound 0.003 µM); 0.6% (second compound 0.1 µM, first compound 0.00949 µM); 0.92% (second compound 0.1 µM, first compound 0.03 µM); 0.04% (second compound 0.1 µM, first compound 0.0949 µM); 0.14% (second compound 0.1 µM, first compound 0.3 µM). The viability, T/C reads like this: (second compound 0.316 µM, first compound 0.000949 µM) 1.86%; (second compound 0.316 µM, first compound 0.003 µM) 0.71%; (second compound 0.316 µM, first compound 0.00949 µM) 0.57%; (second compound 0.316 µM, first compound 0.03 µM) 0.69%; (second compound 0.316 µM, first compound 0.0949 µM) 0.03%; (second compound 0.316 µM, first compound 0.3 µM) 0.27%. Further, the viability, T/C (second compound 1 µM, first compound 0.000949 µM) is 2.45%; the viability, T/C (second compound 1 µM, first compound 0.003 µM) is 1.08%; the viability, T/C (second compound 1 µM, first compound 0.00949 µM) was 0.51%; the viability, T/C (second compound 1 µM, first compound 0.03 µM) is 0.73%; the viability, T/C (second compound 1 µM, first compound 0.0949 µM) is 0.06%; the viability, T/C (second compound 1 µM, first compound 0.3 µM) was 0.61%. The viability, T/C is, setting by setting: (second compound 3.16 µM, first compound 0.000949 µM) 0.94%; (second compound 3.16 µM, first compound 0.003 µM) 0.56%; (second compound 3.16 µM, first compound 0.00949 µM) 0.41%; (second compound 3.16 µM, first compound 0.03 µM) 0.58%; (second compound 3.16 µM, first compound 0.0949 µM) 0.5%; (second compound 3.16 µM, first compound 0.3 µM) 0.13%. Further, the viability, T/C is 0.65% (second compound 10 µM, first compound 0.000949 µM); 0.19% (second compound 10 µM, first compound 0.003 µM); 0.2% (second compound 10 µM, first compound 0.00949 µM); 0.27% (second compound 10 µM, first compound 0.03 µM); 0.13% (second compound 10 µM, first compound 0.0949 µM); 0.19% (second compound 10 µM, first compound 0.3 µM).
`Nc1ncn(C2CC(O)C(CO)S2)c(=O)n1` (stereo unspecified): the viability, T/C (compound 0.000949 µM) was 74.8% and 46.6%; the viability, T/C (compound 0.003 µM) is 33.3% and 23.1%; the viability, T/C (compound 0.00949 µM) was 9.28% and 10.7%; the viability, T/C (compound 0.03 µM) is 3.02% and 5.29%; the viability, T/C (compound 0.0949 µM) is 1.96% and 4.56%; the viability, T/C (compound 0.3 µM) was 2.36% and 4.76%. The IC50 (curve of compound) is 1.89 nM and < 0.949 nM.

For orientation: IC50 means the midpoint of a concentration-inhibition curve. Usually viability, T/C stands for the result in the treated group divided by that in the control group, in per cent.
